ChEMBL document CHEMBL1201862, “PubChem BioAssay data set” (2004)
Active and inactive are the calls of the source.

Tests used:
Nonstructural protein 1 = Nonstructural protein 1 (Influenza A virus, UniProt Q194T2); format: functional, Influenza A virus (A/California/07/2009(H1N1))
[1] = target: T1, High affinity choline transporter 1 (Homo sapiens, UniProt Q9GZV3); test: CHT inhibitors, dose response, cell-based, 5-point CRC, membrane potential dye (AID 504840); format: functional
T1 sequence (Q9GZV3 whole entry): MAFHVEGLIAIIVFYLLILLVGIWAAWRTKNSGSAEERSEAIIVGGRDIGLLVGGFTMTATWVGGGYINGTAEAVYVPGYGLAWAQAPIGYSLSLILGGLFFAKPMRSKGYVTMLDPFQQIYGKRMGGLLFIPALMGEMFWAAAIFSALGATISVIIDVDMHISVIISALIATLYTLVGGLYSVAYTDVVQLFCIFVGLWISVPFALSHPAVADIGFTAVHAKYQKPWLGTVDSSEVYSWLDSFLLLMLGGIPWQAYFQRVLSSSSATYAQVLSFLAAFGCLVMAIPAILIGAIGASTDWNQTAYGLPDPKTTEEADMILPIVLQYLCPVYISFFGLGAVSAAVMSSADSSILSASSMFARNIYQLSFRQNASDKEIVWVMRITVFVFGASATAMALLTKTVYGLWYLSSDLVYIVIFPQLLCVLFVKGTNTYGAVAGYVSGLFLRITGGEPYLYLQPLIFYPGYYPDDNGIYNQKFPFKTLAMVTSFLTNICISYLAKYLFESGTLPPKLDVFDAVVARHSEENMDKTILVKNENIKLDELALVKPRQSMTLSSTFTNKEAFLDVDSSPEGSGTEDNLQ

Fatty acid synthase [2] = target: T2, Fatty acid synthase (Homo sapiens, UniProt P49327); test: FAS thioesterase domain inhibitors, dose response, biochemical, endpoint fluorescence intensity, uHTS hits (AID 624327); format: functional;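 note: fluorescence from hydrolysis of an O-methyl fluorescein acyl ester substrate by the enzyme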
Fatty acid synthase [3] = target: T2, Fatty acid synthase; test: FAS thioesterase domain inhibitors, dose response, biochemical, kinetic fluorescence intensity (AID 624326); format: functional;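 note: rate of fluorescence rise from hydrolysis of a fluorogenic O-methyl fluorescein ester substrate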
[4] = NIH-3T3 fibroblast cytotoxicity, dose response, cytotoxicity control, cell-based, fluorescence, Alamar Blue, secondary assay (AID 2327); format: functional;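 note: NIH-3T3 mouse fibroblasts cultured with fluconazole at 8 µg/mL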
[5] = C. albicans growth with fluconazole, confirmation, fluorescence, retest (AID 2467); format: functional, cell-based
[6] = target: T3, Calpain-2 catalytic subunit (Sus scrofa, UniProt P43367); test: pig calpain II inhibitor potency, dose response, biochemical, fluorogenic peptide substrate (AID 1420); format: functional
T3 sequence (P43367 whole entry): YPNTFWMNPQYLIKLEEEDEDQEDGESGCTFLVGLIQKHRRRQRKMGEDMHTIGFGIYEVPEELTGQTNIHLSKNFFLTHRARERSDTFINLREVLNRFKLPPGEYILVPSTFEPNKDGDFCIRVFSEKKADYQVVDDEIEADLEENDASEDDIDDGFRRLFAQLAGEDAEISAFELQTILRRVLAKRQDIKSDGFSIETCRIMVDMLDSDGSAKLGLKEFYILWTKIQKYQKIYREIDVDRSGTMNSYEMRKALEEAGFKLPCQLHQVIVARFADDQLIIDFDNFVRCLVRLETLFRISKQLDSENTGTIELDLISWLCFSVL

[7] = target: T4, Polyadenylate-binding protein 1 (Homo sapiens, UniProt P11940); test: PABP1 MLLE–PAM2 interaction inhibitors, dose response, miRNA deadenylation inhibitor project, biochemical, fluorescence polarization, Cy5-PAM2 peptide, secondary (AID 602260); format: functional; details: read-out: IC50_Mean
[8] = target: T4, Polyadenylate-binding protein 1; test: PABP1 MLLE–PAM2 binding inhibitor potency, dose response, biochemical, fluorescence polarization, FITC-PAM2 peptide (AID 602259); format: functional; details: read-out: IC50_Mean
[9] = target: T5, Replicative DNA helicase DnaB (Mycobacterium tuberculosis, UniProt P9WMR3); test: DnaB intein splicing inhibitors, dose response, biochemical, cell-free fluorescence (AID 449749); format: functional
T5 sequence (P9WMR3 whole entry): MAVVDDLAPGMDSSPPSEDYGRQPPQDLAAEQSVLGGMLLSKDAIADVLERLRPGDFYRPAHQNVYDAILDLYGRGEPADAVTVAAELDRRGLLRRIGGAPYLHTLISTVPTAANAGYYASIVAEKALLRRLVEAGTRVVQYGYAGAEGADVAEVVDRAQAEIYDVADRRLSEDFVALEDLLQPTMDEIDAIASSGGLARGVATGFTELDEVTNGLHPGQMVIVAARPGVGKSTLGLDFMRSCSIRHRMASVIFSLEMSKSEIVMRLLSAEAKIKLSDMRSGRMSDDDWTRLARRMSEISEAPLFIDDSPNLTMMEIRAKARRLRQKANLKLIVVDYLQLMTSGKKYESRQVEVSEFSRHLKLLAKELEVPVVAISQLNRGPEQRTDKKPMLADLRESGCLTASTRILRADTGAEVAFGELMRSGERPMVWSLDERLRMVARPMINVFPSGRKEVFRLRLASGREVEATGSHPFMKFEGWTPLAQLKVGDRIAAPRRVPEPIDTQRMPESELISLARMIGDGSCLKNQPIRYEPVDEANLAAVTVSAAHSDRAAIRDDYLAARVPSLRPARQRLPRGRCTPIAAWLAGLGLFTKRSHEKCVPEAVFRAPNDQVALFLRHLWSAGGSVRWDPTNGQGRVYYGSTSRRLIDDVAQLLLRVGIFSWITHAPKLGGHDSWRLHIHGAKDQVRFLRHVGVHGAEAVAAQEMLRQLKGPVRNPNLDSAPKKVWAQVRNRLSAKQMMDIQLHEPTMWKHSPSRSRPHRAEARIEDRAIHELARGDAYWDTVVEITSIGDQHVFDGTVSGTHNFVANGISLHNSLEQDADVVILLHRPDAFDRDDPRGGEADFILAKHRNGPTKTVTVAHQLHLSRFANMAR

Protein RecA = target: T6, Protein RecA (Mycobacterium tuberculosis, UniProt P9WHJ3); test: Fluorescence Cell-Free Homogeneous Dose Retest to Identify Inhibitors of RecA-Intein Splicing Activity. [Related pubchem assays (depositor defined):AID2097, AID2223, AID489010, AID492950]; format: functional
T6 sequence (P9WHJ3 whole entry): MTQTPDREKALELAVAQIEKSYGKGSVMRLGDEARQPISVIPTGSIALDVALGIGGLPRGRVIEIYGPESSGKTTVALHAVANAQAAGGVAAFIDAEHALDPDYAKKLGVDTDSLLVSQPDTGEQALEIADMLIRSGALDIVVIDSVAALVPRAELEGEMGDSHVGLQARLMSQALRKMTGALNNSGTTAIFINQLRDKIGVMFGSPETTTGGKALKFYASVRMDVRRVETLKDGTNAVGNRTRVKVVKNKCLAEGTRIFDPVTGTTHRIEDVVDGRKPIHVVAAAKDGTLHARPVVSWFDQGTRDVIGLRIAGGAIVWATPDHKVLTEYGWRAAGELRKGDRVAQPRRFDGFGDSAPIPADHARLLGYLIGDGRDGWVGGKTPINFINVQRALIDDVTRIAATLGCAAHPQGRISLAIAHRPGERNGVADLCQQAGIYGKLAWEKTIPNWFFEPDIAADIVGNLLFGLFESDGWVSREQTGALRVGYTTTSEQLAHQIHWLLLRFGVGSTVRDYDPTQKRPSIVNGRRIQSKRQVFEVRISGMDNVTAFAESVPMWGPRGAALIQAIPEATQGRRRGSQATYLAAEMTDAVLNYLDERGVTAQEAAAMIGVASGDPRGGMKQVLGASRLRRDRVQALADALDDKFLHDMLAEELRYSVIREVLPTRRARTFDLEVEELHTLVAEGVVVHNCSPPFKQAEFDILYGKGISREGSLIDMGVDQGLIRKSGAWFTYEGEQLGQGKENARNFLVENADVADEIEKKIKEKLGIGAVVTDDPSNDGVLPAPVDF

[10] = target: T7, RNA-binding protein pos-1 (Caenorhabditis elegans, UniProt G5EF15); test: inhibitors of POS-1/mex-3 RNA binding, dose response, biochemical, fluorescence polarization (AID 1964);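 note: purified POS-1 fused to maltose binding protein made in E. coli; potency of compounds blocking POS-1 binding to fluorescent RNA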
T7 sequence (G5EF15 whole entry): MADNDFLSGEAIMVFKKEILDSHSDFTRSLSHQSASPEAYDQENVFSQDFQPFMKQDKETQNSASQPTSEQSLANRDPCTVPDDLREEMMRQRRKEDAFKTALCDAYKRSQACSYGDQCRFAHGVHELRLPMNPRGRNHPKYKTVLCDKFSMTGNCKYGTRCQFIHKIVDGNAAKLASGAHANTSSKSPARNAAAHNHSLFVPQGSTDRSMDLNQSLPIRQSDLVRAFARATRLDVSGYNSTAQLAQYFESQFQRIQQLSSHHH

[11] = target: T8, Zinc finger protein mex-5 (Caenorhabditis elegans, UniProt Q9XUB2); test: MEX-5/TCR-2 RNA interaction inhibitors, dose response, biochemical, C. elegans, fluorescence polarization (AID 1960)
T8 sequence (Q9XUB2 whole entry): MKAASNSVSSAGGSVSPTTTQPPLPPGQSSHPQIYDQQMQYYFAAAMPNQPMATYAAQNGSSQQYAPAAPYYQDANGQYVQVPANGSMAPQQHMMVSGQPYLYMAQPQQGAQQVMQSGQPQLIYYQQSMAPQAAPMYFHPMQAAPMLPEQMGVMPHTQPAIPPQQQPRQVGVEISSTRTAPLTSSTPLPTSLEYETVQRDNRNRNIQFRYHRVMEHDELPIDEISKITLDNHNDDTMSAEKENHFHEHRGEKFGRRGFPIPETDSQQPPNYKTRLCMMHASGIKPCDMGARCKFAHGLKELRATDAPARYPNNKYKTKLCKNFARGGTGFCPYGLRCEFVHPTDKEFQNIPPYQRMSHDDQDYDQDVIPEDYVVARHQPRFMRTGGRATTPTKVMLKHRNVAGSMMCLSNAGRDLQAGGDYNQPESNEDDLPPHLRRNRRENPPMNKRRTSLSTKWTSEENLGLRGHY

[12] = P. falciparum Dd2 growth inhibitors, dose response, SYBR Green, cherry-picked samples (AID 1159567); format: functional, cell-based

Nonstructural protein 1, sequence (Q194T2 whole entry): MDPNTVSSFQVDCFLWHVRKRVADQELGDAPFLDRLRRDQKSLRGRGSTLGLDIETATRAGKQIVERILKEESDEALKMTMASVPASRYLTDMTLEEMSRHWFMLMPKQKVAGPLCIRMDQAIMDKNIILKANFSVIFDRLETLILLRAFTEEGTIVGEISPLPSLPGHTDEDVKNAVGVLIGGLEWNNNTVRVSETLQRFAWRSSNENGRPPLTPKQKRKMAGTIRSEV
T4 sequence (P11940 whole entry): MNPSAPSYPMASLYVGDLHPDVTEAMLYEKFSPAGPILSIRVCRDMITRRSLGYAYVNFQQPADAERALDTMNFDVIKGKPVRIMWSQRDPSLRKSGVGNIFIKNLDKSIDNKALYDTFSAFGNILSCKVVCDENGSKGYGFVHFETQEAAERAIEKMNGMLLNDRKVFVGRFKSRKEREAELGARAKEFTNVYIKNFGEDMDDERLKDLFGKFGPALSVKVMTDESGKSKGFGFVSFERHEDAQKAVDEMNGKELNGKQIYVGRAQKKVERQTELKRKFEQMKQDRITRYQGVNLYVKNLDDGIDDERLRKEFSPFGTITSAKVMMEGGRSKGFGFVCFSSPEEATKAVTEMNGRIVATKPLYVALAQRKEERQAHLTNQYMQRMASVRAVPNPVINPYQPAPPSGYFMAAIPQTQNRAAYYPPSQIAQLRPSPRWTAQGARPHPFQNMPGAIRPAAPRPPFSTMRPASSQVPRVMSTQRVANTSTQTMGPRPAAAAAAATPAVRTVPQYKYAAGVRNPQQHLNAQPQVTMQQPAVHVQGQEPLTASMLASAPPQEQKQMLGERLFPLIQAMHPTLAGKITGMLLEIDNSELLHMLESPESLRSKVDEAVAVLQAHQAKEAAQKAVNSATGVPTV
T2 sequence (P49327 whole entry, the tested form may be a part): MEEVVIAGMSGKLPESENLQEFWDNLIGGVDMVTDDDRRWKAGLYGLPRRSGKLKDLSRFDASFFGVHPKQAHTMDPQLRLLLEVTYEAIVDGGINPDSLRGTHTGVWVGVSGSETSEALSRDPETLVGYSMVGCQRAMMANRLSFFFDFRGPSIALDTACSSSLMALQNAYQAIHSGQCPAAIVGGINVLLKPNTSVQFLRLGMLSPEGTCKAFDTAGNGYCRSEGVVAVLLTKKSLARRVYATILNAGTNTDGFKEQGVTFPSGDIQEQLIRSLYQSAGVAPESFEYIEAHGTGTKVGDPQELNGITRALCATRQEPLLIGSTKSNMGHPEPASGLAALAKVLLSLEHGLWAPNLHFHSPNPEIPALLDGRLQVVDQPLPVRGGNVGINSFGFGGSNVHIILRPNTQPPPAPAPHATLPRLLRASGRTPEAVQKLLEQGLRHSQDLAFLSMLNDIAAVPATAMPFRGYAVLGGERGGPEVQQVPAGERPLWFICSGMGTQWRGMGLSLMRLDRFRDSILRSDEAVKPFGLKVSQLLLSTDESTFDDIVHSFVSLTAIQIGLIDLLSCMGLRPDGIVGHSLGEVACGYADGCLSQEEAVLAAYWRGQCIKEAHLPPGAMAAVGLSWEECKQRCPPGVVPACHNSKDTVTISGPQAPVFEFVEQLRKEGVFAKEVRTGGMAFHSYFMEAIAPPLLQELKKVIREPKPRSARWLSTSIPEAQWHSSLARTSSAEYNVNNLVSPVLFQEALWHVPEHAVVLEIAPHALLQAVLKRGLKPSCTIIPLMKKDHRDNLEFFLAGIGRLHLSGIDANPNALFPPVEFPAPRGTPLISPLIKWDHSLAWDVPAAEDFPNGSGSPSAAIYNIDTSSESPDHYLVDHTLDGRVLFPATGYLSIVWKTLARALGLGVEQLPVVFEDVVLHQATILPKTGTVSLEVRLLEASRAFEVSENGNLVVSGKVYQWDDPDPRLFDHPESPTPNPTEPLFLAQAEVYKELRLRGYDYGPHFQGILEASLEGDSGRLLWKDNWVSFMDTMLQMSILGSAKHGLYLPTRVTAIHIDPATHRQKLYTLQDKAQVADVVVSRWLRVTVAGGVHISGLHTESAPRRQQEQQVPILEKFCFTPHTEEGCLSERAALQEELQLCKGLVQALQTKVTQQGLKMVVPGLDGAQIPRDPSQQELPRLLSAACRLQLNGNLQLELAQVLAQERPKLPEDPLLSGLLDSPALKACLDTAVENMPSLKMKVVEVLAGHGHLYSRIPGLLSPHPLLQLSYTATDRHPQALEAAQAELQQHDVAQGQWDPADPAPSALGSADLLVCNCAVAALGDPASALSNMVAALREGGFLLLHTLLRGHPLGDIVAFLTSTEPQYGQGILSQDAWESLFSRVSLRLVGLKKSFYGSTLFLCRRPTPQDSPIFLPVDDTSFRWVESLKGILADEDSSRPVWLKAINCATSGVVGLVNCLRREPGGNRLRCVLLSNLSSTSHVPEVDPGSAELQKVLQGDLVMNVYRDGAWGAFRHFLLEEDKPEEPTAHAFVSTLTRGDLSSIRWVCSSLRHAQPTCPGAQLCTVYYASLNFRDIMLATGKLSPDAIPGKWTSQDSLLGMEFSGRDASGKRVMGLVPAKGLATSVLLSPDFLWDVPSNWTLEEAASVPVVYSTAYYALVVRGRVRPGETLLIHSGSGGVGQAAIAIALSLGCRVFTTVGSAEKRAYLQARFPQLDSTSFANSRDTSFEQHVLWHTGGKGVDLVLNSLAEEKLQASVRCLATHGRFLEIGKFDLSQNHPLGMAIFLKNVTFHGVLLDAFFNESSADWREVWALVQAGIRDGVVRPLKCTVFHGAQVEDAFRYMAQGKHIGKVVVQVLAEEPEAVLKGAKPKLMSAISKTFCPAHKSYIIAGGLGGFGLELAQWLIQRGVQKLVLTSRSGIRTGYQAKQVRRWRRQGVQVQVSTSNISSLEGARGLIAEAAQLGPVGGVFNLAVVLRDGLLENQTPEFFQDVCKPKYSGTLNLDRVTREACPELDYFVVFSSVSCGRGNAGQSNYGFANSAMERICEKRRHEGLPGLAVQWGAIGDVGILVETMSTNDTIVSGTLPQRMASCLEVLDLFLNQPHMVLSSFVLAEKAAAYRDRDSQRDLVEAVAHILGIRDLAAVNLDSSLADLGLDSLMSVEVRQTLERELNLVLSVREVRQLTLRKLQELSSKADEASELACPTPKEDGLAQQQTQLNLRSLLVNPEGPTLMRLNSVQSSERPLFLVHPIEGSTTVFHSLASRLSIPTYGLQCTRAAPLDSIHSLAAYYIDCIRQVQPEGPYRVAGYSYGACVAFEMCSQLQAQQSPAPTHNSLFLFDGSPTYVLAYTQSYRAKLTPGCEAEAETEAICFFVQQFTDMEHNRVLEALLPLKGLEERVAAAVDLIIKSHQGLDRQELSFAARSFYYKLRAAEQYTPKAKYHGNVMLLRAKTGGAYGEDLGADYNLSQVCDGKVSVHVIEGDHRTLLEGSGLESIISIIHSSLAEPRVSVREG

Compound	IC50 (Fatty acid synthase [2])	IC50 (Fatty acid synthase [3])	AC50 [12]	further results
COc1ccc(C2CC(=O)Oc3c(C(CCN4CCCCC4)c4ccc(N(C)C)cc4)c(OC)cc(OC)c32)cc1 (stereo unspecified)	–	–	–	IC50 (Nonstructural protein 1): 18 µM (active); IC50 [1]: 14.5 µM (active)
O=[N+]([O-])c1ccc(S(=O)(=O)Nc2nnc(C3CCCCC3)s2)cc1	7.87 µM (active)	7.54 µM (active)	–	–
CC(C)N1C(=O)S/C(=C\c2ccc(-c3ccc(Cl)c(C(=O)O)c3)o2)C1=O	5.26 µM (active)	5.51 µM (active)	–	–
CC(C)(C)NC(=O)NC(=O)COC(=O)Cc1ccc(Cl)cc1Cl	9.97 µM (active)	9.75 µM (active)	–	–
O=C1c2ccccc2C(=O)c2c1cccc2N1CCCC1	–	–	–	EC50 [4]: 55.6 µM (active); EC50 [5]: > 38 µM (not active); IC50 [6]: 14.6 µM (not active); IC50 (Nonstructural protein 1): 7.3 µM (active)
Cc1ccc(S(=O)(=O)Nc2nc3ccccc3nc2Nc2cccc(S(=O)(=O)N3CCCC3)c2)cc1	–	–	–	IC50 [7]: > 66 µM (inactive); IC50 [8]: > 66 µM (inactive)
Cn1c(=O)c([N+](=O)[O-])c(N2CCN(Cc3ccc4c(c3)OCO4)CC2)c2ccccc21	2.71 µM (active)	4.73 µM (active)	–	–
O=C1OC(c2ccccc2)=NC12CC2c1ccc(Cl)cc1 (stereo unspecified)	0.293 µM (active)	0.238 µM (active)	–	–
Cc1nc(CCNC(=O)CC2C(=O)NCCN2Cc2ccccc2)sc1C (stereo unspecified)	–	–	–	IC50 [7]: > 66 µM (inactive); IC50 [8]: > 66 µM (inactive)
CC(C)(C)OC(=O)NCCCC[C@H](NC(=O)c1[nH]cnc1C(=O)Nc1ccccc1)C(=O)OC(C)(C)C	2.63 µM (active)	3.01 µM (active)	–	–
CCC(CC)COC(=O)C1=C(C)NC(=O)NC1c1ccc([N+](=O)[O-])cc1 (stereo unspecified)	4.35 µM (active)	5.94 µM (active)	–	–
CN1CCN(NC(=O)CN2C(=O)S/C(=C\c3c(Cl)cccc3Cl)C2=O)CC1	–	–	–	IC50 [7]: > 66 µM (inactive); IC50 [8]: > 66 µM (inactive)
CCN(C(=O)COC(=O)c1cc([N+](=O)[O-])ccc1N1CCOCC1)c1ccccc1	1.94 µM (active)	1.86 µM (active)	–	–
C[C@H](O)[C@H](O)[C@H]1CNc2nc(N)[nH]c(=O)c2N1	–	–	–	IC50 [7]: > 66 µM (inactive); IC50 [8]: > 66 µM (inactive)
O=C1NC(=O)N2CCSC2(Cc2ccccc2)N1 (stereo unspecified)	–	–	–	IC50 [7]: > 66 µM (inactive); IC50 [8]: > 66 µM (inactive)
CCOC(=O)c1cnc(-n2[nH]c(C)c(Cc3ccccc3)c2=O)[nH]c1=O	–	–	–	IC50 (Nonstructural protein 1): 3.4 µM (active); AC50 [9]: 9.77 µM (active); EC50 (Protein RecA): 5.99 µM (active)
O=C(N/N=C\C1C(=O)NC(=S)N(c2ccccc2)C1=O)c1ccc(O)cc1 (stereo unspecified)	–	–	–	EC50 [10]: > 300 µM (not active); EC50 [11]: 63.7 µM (active); IC50 (Nonstructural protein 1): 9.86 µM (active)
CN1c2ccc(-c3cccc(F)c3)cc2[C@@H]2[C@@H](CCN2C(=O)C2CC2)[C@@H]1CO	–	–	16.8 µM (active)	–
CCC(=O)N1CCC2(CC1)CN(Cc1ccc(Cl)cc1)[C@@H](CO)c1[nH]c3cc(OC)ccc3c12	–	–	3.79 µM (active)	–
C[C@H]1CN([C@@H](C)CO)S(=O)(=O)c2ccc(C#Cc3ccncc3)cc2O[C@@H]1CN(C)S(=O)(=O)c1ccc(F)cc1	–	–	3.9 µM (active)	–
CCC(=O)N1CCC2(CC1)CN(C(=O)Nc1ccc(F)cc1)[C@@H](CO)c1c2c2ccc(OC)cc2n1C	–	–	4.37 µM (active)	–
COc1ccc2c3c(n(C)c2c1)[C@@H](CO)N(S(C)(=O)=O)CC31CCN(C(=O)CN(C)C)CC1	–	–	4.28 µM (active)	–
CCCN(C)C[C@@H]1Oc2cc(C#Cc3ccccc3)ccc2S(=O)(=O)N([C@@H](C)CO)C[C@@H]1C	–	–	4.59 µM (active)	–
O=C(C1CCCC1)N1CC(=O)N2[C@H](CO)[C@@H](c3ccc(C#CCc4ccccc4)cc3)[C@@H]2C1	–	–	6.57 µM (active)	–
CO[C@@H]1CN(C)C(=O)c2ccc(NC(=O)c3nc4ccccc4s3)cc2OC[C@H](C)N(Cc2cccnc2)C[C@@H]1C	–	–	5 µM (active)	–
